Measurements as given in ChEMBL document CHEMBL1201862, “PubChem BioAssay data set” (2004).
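Briefly, cells in 96-well plates were exposed to five compound concentrations for 48 h, and endpoints were estimated by linear interpolation. Here, GI50 denotes the concentration required for 50% inhibition of growth.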 Activity calls are given as the source filed them. Cut-off read from the data, not from the text of the source: active = GI50 up to about 1.1 µM and inactive = higher.

Key:
Experiment in all cases: NCI-60 cell line screen, 48 h
[1] = tested on: RPMI-8226
[2] = tested on: SR
[3] = tested on: A549
[4] = tested on: NCI/ADR-RES
[5] = tested on: IGROV-1
[6] = tested on: OVCAR-3
[7] = tested on: SK-MEL-2
[8] = tested on: Malme-3M
[9] = tested on: HOP-92
[10] = tested on: UACC-257
[11] = tested on: MDA-N
[12] = tested on: SK-MEL-5
[13] = tested on: HCT-116
[14] = tested on: NCI-H460
[15] = tested on: HCT-15
[16] = tested on: OVCAR-4
[17] = tested on: MOLT-4
[18] = tested on: OVCAR-5
[19] = tested on: CCRF-CEM

Row | Structure (SMILES) | GI50 [1] | GI50 [2] | GI50 [3] | GI50 [4] | GI50 [5] | GI50 [6] | GI50 [7] | GI50 [8] | GI50 [9] | GI50 [10] | GI50 [11] | GI50 [12] | GI50 [13] | GI50 [14] | GI50 [15] | GI50 [16] | GI50 [17] | GI50 [18] | GI50 [19]
1 | CN1CC2CN(Cc3ccccc3)CCN2c2cccnc21 (stereo not drawn) | 27.5 µM (inactive) | 25.8 µM (inactive) | > 100 µM (inactive) | 32.1 µM (inactive) | 52.7 µM (inactive) | 41.1 µM (inactive) | 89.7 µM (inactive) | 47 µM (inactive) | 47.4 µM (inactive) | 40.8 µM (inactive) | 38.6 µM (inactive) | 31.1 µM (inactive) | 10.6 µM (inactive) | 39.1 µM (inactive) | 28.6 µM | 82.6 µM (inactive) | 35.6 µM (inactive) | > 100 µM (inactive) | 32.8 µM (inactive)
2 | CC(C)NC(=O)OCc1c(COC(=O)NC(C)C)c(-c2ccc[n+](COC(=O)Cc3ccccc3)c2)n2c1CCC2 | 23.6 µM (inactive) | 3.15 µM (inactive) | 44.8 µM (inactive) | 36.6 µM (inactive) | 75.3 µM (inactive) | 41 µM (inactive) | 28.1 µM (inactive) | 49 µM (inactive) | 16.4 µM (inactive) | 58.9 µM (inactive) | 80 µM (inactive) | 33.4 µM (inactive) | 30.4 µM (inactive) | 19.8 µM (inactive) | 55.5 µM | 25 µM (inactive) | 6.76 µM (inactive) | 36.1 µM (inactive) | 54.7 µM (inactive)
3 | O=C1Nc2ccccc2/C1=C/c1c(Cl)[nH]c2ccc(O)cc12 | 3.43 µM (inactive) | 0.177 µM (active) | 4.54 µM (inactive) | 0.944 µM (active) | 1.69 µM (inactive) | 1.77 µM (inactive) | 1.55 µM (inactive) | 0.736 µM (active) | 5.69 µM (inactive) | 10.6 µM (inactive) | 0.194 µM (active) | 1.21 µM (inactive) | 0.719 µM (active) | 3.61 µM (inactive) | 0.971 µM | 3.94 µM (inactive) | 1 µM (active) | 4.04 µM (inactive) | 1.4 µM (inactive)
4 | CCOC(=O)/C=C(/OCC)[C@@H]1C(C(=O)c2ccc(Cl)cc2)[C@H]1/C(=C\C(=O)OCC)OCC (stereo partly drawn) | 5.35 µM (inactive) | 8.73 µM (inactive) | > 100 µM (inactive) | 29 µM (inactive) | > 100 µM (inactive) | > 100 µM (inactive) | > 100 µM (inactive) | > 100 µM (inactive) | > 34.7 µM (inactive) | > 100 µM (inactive) | > 100 µM (inactive) | 24.9 µM (inactive) | 15.5 µM (inactive) | > 100 µM (inactive) | > 100 µM | > 100 µM (inactive) | > 20.5 µM (inactive) | > 100 µM (inactive) | 57.4 µM (inactive)
5 | NC1CCCCC1NCCNC1CCCCC1N (stereo not drawn) | > 100 µM (inactive) | > 100 µM (inactive) | 28.8 µM (inactive) | > 100 µM (inactive) | 75.7 µM (inactive) | > 100 µM (inactive) | > 100 µM (inactive) | > 100 µM (inactive) | 41.5 µM (inactive) | > 100 µM (inactive) | > 100 µM (inactive) | > 100 µM (inactive) | 47.5 µM (inactive) | > 100 µM (inactive) | > 100 µM | 47.2 µM (inactive) | 36.1 µM (inactive) | 20.9 µM (inactive) | 36.4 µM (inactive)
6 | OCC1OC(O[C@H]2CN3[C@H](O)[C@@H](O)[C@H](O)[C@H]3C2O)C(O)C(O)C1O (stereo partly drawn) | > 100 µM (inactive) | > 100 µM (inactive) | > 100 µM (inactive) | > 100 µM (inactive) | > 100 µM (inactive) | > 100 µM (inactive) | > 100 µM (inactive) | > 100 µM (inactive) | > 100 µM (inactive) | > 100 µM (inactive) | > 100 µM (inactive) | > 100 µM (inactive) | > 100 µM (inactive) | > 100 µM (inactive) | > 100 µM | > 100 µM (inactive) | > 100 µM (inactive) | > 100 µM (inactive) | > 100 µM (inactive)
7 | COc1ccc(N2C(=O)C3c4[nH]c5ccc(F)cc5c4C4CCC(c5ccccc5)CC4C3C2=O)cc1 (stereo not drawn) | 32.8 µM (inactive) | 6.93 µM (inactive) | 11.6 µM (inactive) | 45.9 µM (inactive) | 20.1 µM (inactive) | 38.3 µM (inactive) | 21.8 µM (inactive) | 16.1 µM (inactive) | 14.5 µM (inactive) | 26.7 µM (inactive) | 27.4 µM (inactive) | 21.6 µM (inactive) | 20.7 µM (inactive) | 10 µM (inactive) | 19.7 µM | 12.7 µM (inactive) | 8.18 µM (inactive) | 18.3 µM (inactive) | 2.26 µM (inactive)
